{"source": "patent US10993935B2", "about": "“Compositions and methods for treatment of lung infections” (priority 2018, dated 2021)", "key": {"[1]": {"test": "Particle (droplet) size analysis of aerosol drugs", "type": "physicochemical", "conditions": "60 mg/mL; TOB in 0.225% saline, RFX in 100% DMSO; nebulizer aerosol, Malvern Spraytec", "method": "Particle Size Analysis of Aerosol Drugs. Droplet size analysis of drugs used for aerosol therapy was conducted by Spray Analytics (Lincolnshire, Ill.). Samples of TOB in 0.225% saline and RFX in 100% DMSO at concentrations of 60 mg/mL for both were prepared and submitted along with nebulizer unit used for animal experiments. A Malvern Spraytec was used for analysis with the tested product sprayed horizontally at less than 5 cm from the detector beam. The samples were measured in triplicates for 20-30 seconds of stable operation of the nebulizer. Refractive index and absorption values used were that of DMSO for RFX and water for TOB.\nThe potential adverse effects of using DMSO were first assessed by nebulizing DMSO alone to a group of C57BL/6 mice (n=8). This type of mice was used due to their natural resistance against infection based on our previous studies. […] Next, the delivery of both RFX and TOB via nebulization was optimized. […] To determine the dosage of each drug received by the mice, the lungs were homogenized and drug concentrations of TOB and RFX were determined via ELISA and HPLC, respectively. […] The droplet size for both TOB and RFX were determined to be identical with the average droplet size for TOB and RFX being 5.07 μm and 5.02 μm, respectively."}, "P. aeruginosa": {"tested_on": "P. aeruginosa", "test": "Uronic acid carbazole assay of alginate production", "type": "cell-based, Pseudomonas aeruginosa", "method": "Data shown represent means of 5 replicates per group ±standard error (SE). Two-way ANOVA analysis was used with statistical significance set as a P value of <0.01 (****, P<0.0001; **, P<0.001; *, P<0.01).\nUronic Acid Carbazole Assay. Alginate production was measured via carbazole assay. Laboratory and clinical isolate strains were grown in PIB from a single colony isolation. The strains were then plated on 150 mm agar plates containing no antibiotic; RFX at concentrations of 10 μM (MIC50), 6 μM (MIC30), 2 μM (MIC10), and 0.2 μM (MIC1); or TOB at concentrations of 2 μM (MIC50), 1.2 μM (MIC30), 0.4 μM (MIC10), and 0.04 μM (MIC1) and incubated at 37° C. for 48 h. Sterile PBS (30 mL) was added to the plates and the cells plus their mucoid film were collected into 50 mL conical tubes. A 1 mL sample was taken to measure growth via OD at 600 nm. A 700 μL sample was then added to tubes containing 6 mL of a sulfuric acid-borate solution. A 200 μL aliquot of 0.1% carbazole was then added to the tubes and incubated for 30 m at 55° C. The alginate was then measured via OD at 530 nm and plotted against a standard curve made with D-mannuronic acid (Sigma-Aldrich). The reported values represent an average from three independent alginate collections with standard deviation.\nTo investigate the extent of this inhibition, PAO1, PAO581, and two mucoid P. aeruginosa CF isolates (CF001 and CF010) were grew on PIA plates containing sub-MIC concentrations of either TOB or RFX and measured alginate production with the carbazole assay. […] The MIC normalization was used to compare the effect of the two drugs on inhibition of alginate production, as this allowed the measurement of alginate made by the same number of bacterial cells."}, "P. aeruginosa strains": {"tested_on": "P. aeruginosa strains", "test": "MIC and synergy testing (checkerboard/isobologram) of RFX and TOB", "type": "cell-based, Pseudomonas aeruginosa", "conditions": "for MIC RFX: RFX alone; for MIC RFX in Combination: in combination with TOB; for MIC TOB: TOB alone; for MIC TOB in Combination: in combination with RFX", "method": "Minimum Inhibitory Concentration Testing. MIC testing was performed as previously described. Briefly, overnight culture of bacteria was diluted in 1:100 of a 0.5 McFarland standard as inoculum. The same number of cells was grown in LB broth containing serial, two-fold dilutions of rifaximin (RFX) or tobramycin (TOB). Growth was measured via optical density (OD) at 600 nm after 24 h incubation at 37° C. Concentrations of antibiotic required for inhibition of 50% and 90% of strains were determined.\nSynergy Testing. Synergistic potential of RFX and TOB was performed by isobologram (checkerboard) analysis in 96-well plate format Briefly, PIB containing serial dilutions of each drug were plated in 64 wells of a 96-well plate with one drug vertically plated and the other horizontally plated. Bacterial cells of P. aeruginosa were grown 4 to 6 hours to an early log phase and then added to the wells of the plate. Growth in the wells was measured via OD at 600 nm after 24 h incubation at 37° C. The MIC and Fractional Inhibition Concentration (FIC) were calculated to determine synergism, antagonism or additivity between the tested strains of P. aeruginosa: PAO1, PAO581, PAO581 isogenic mutant, CF001, and CF010. The summative ΣFTC was calculated from the FICs and interpreted according to the standard index values: synergy ≤0.5; indifferent 0.5< to ≤4; antagonism >4. […]"}, "[2]": {"conditions": "non-mucoid strain PAO1, sub-MIC concentrations (MIC1-MIC50) on PIA, TOB versus RFX"}}}
{"smiles": "CO[C@H]1/C=C/O[C@@]2(C)Oc3c(C)c(O)c4c(O)c(c5c(nc6cc(C)ccn65)c4c3C2=O)NC(=O)/C(C)=C\\C=C\\[C@H](C)[C@H](O)[C@@H](C)[C@@H](O)[C@@H](C)[C@H](OC(C)=O)[C@@H]1C", "note": "[RFX, rifaximin]", "values": [{"measurement": "average droplet size", "setting": "[1]", "value": 5.02, "unit": "μm"}, {"measurement": "alginate production", "setting": "P. aeruginosa; mucoid CF isolates CF001 and CF010, compared to TOB", "value": "significant decrease in alginate production"}, {"measurement": "alginate production", "setting": "P. aeruginosa; mucoid strain PAO581, all concentrations tested, compared to TOB", "value": "significantly decreased alginate production"}, {"measurement": "alginate production", "setting": "P. aeruginosa; [2]", "value": "no significant difference in alginate production"}, {"measurement": "FIC RFX", "setting": "P. aeruginosa strains; strain CF001, M", "value": 0.25}, {"measurement": "MIC RFX", "setting": "P. aeruginosa strains; strain CF001, M", "value": 16}, {"measurement": "MIC RFX in Combination", "setting": "P. aeruginosa strains; strain CF001, M", "value": 4}, {"measurement": "MIC RFX", "setting": "P. aeruginosa strains; strain CF003, NM", "value": 4}, {"measurement": "FIC RFX", "setting": "P. aeruginosa strains; strain CF010, M", "value": 0.25}, {"measurement": "MIC RFX", "setting": "P. aeruginosa strains; strain CF010, M", "value": 8}, {"measurement": "MIC RFX in Combination", "setting": "P. aeruginosa strains; strain CF010, M", "value": 2}, {"measurement": "FIC RFX", "setting": "P. aeruginosa strains; strain PAO1, NM", "value": 0.25}, {"measurement": "MIC RFX", "setting": "P. aeruginosa strains; strain PAO1, NM (non-mucoid)", "value": 16}, {"measurement": "MIC RFX in Combination", "setting": "P. aeruginosa strains; strain PAO1, NM", "value": 4}, {"measurement": "FIC RFX", "setting": "P. aeruginosa strains; strain PAO581, M", "value": 0.25}, {"measurement": "MIC RFX", "setting": "P. aeruginosa strains; strain PAO581, M (mucoid)", "value": 16}, {"measurement": "MIC RFX in Combination", "setting": "P. aeruginosa strains; strain PAO581, M", "value": 4}, {"measurement": "FIC RFX", "setting": "P. aeruginosa strains; strain PAO581 NM revertant", "value": 0.25}, {"measurement": "MIC RFX", "setting": "P. aeruginosa strains; strain PAO581 NM revertant", "value": 16}, {"measurement": "MIC RFX in Combination", "setting": "P. aeruginosa strains; strain PAO581 NM revertant", "value": 4}]}
{"smiles": "NC[C@H]1O[C@H](O[C@H]2[C@H](O)[C@@H](O[C@H]3O[C@H](CO)[C@@H](O)[C@H](N)[C@H]3O)[C@H](N)C[C@@H]2N)[C@H](N)C[C@@H]1O", "note": "[TOB, tobramycin]", "values": [{"measurement": "average droplet size", "setting": "[1]", "value": 5.07, "unit": "μm"}, {"measurement": "alginate production", "setting": "P. aeruginosa; [2]", "value": "no significant difference in alginate production"}, {"measurement": "FIC TOB", "setting": "P. aeruginosa strains; strain CF001, M", "value": 0.25}, {"measurement": "MIC TOB", "setting": "P. aeruginosa strains; strain CF001, M", "value": 2}, {"measurement": "MIC TOB in Combination", "setting": "P. aeruginosa strains; strain CF001, M", "value": 0.5}, {"measurement": "MIC TOB", "setting": "P. aeruginosa strains; strain CF003, NM", "value": 2}, {"measurement": "MIC TOB in Combination", "setting": "P. aeruginosa strains; strain CF003, NM", "value": 0.25}, {"measurement": "FIC TOB", "setting": "P. aeruginosa strains; strain CF010, M", "value": 0.25}, {"measurement": "MIC TOB", "setting": "P. aeruginosa strains; strain CF010, M", "value": 2}, {"measurement": "MIC TOB in Combination", "setting": "P. aeruginosa strains; strain CF010, M", "value": 0.5}, {"measurement": "FIC TOB", "setting": "P. aeruginosa strains; strain PAO1, NM", "value": 0.125}, {"measurement": "MIC TOB", "setting": "P. aeruginosa strains; strain PAO1, NM", "value": 2}, {"measurement": "MIC TOB in Combination", "setting": "P. aeruginosa strains; strain PAO1, NM", "value": 0.25}, {"measurement": "FIC TOB", "setting": "P. aeruginosa strains; strain PAO581, M", "value": 0.25}, {"measurement": "MIC TOB", "setting": "P. aeruginosa strains; strain PAO581, M", "value": 2}, {"measurement": "MIC TOB in Combination", "setting": "P. aeruginosa strains; strain PAO581, M", "value": 0.5}, {"measurement": "FIC TOB", "setting": "P. aeruginosa strains; strain PAO581 NM revertant", "value": 0.25}, {"measurement": "MIC TOB", "setting": "P. aeruginosa strains; strain PAO581 NM revertant", "value": 2}, {"measurement": "MIC TOB in Combination", "setting": "P. aeruginosa strains; strain PAO581 NM revertant", "value": 0.5}]}
